# Source: patent publication US12012403B2, “Aryl sulfonyl compounds as CCR6 inhibitors” (CHEMOCENTRYX, INC., priority 2021, dated 2024)
# Molecular target: T1, human CCR6 (Homo sapiens, UniProt P51684)
# T1 construct: expressed in transfected cells; host or cells: Ba/F3 cells (murine pro-B line), hCCR6-transfected, CMV promoter, sodium butyrate induction
# T1 sequence (P51684 1-374): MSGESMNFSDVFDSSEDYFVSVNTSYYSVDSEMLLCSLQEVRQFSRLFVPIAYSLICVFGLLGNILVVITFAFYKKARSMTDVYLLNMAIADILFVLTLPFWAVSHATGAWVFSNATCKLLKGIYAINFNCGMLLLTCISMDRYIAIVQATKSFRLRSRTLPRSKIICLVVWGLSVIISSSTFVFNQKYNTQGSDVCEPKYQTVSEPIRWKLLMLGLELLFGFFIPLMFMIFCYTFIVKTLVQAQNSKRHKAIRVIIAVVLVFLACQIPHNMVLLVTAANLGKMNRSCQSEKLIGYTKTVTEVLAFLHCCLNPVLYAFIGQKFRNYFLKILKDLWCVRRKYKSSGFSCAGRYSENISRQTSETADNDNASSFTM
# Experiment: Migration (chemotaxis) assay, hCCR6-transfected Ba/F3 cells toward CCL20
# Type: cell-based
# Settings: hCCR6-transfected Ba/F3 cells in human serum; recombinant human CCL20 10 nM; 37° C. 45 minutes; read-out: Potency (IC50 value in the migration assay)
# How it was run: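 Ba/F3 cells stably transfected with human CCR6 (CMV promoter), pre-induced 24 hr with sodium butyrate, suspended at 4 million/ml in human serum with test compound serially diluted from 10 μM final. Migration through 5-μm polycarbonate membrane toward 10 nM CCL20 (EC50) for 45 min at 37 °C; migrated cells quantified by CyQUANT fluorescence.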
row,Structure (SMILES),IC50 [nM]
1,O=C1NC[C@@H]2CCN(c3ccc(S(=O)(=O)N4CCC(Nc5ccc(C(F)(F)F)cn5)CC4)cc3)C[C@H]12 (racemic) [Example 1.169],100 to 10000
2,CN(C)C(=O)CC1CCN(c2ccc(S(=O)(=O)N3CCC(Nc4ccc(C(F)(F)F)cn4)CC3)cc2)CC1 [Example 1.134],100 to 10000
3,O=S(=O)(c1ccc(-c2ccc3c(c2)CCC3)cc1)N1CCC(Nc2ccc(C(F)(F)F)cn2)CC1 [Example 1.120],100 to 10000
4,O=C1Cc2cc(-c3ccc(S(=O)(=O)N4CCC(Nc5ccc(C(F)(F)F)cn5)CC4)cc3)ncc2N1 [Example 1.043],100 to 10000
5,CC(=O)N[C@H]1CCCN(c2ccc(S(=O)(=O)N3CCC(Nc4ccc(C(F)(F)F)cn4)CC3)cc2)C1 [Example 1.193],100 to 10000
6,O=S(=O)(c1ccc(N2CCC(Cc3ncc[nH]3)CC2)cc1)N1CCC(Nc2ccc(C(F)(F)F)cn2)CC1 [Example 1.131],100 to 10000
7,O=S(=O)(c1ccc(C2CCCNC2)cc1)N1CCC(Nc2ccc(C(F)(F)F)cn2)CC1 (stereo not shown) [Example 1.225],100 to 10000
8,O=C1CCCCN1c1ccc(S(=O)(=O)N2CCC(Nc3ccc(C(F)(F)F)cn3)CC2)cc1 [Example 1.227],100 to 10000
9,NC(=O)NC1CCN(c2ccc(S(=O)(=O)N3CCC(Nc4ccc(C(F)(F)F)cn4)CC3)cc2)CC1 [Example 1.205],5 to 100
10,NC(=O)CC1CN(c2ccc(S(=O)(=O)N3CCC(Nc4ccc(C(F)(F)F)cn4)CC3)cc2)C1 [Example 1.144],100 to 10000
11,O=C1N(CCO)c2ncc(-c3ccc(S(=O)(=O)N4CCC(Nc5ccc(C(F)(F)F)cn5)CC4)cc3)cc2C12CCOCC2 [Example 1.020],5 to 100
12,NC(=O)CN1CCN(c2ccc(S(=O)(=O)N3CCC(Nc4ccc(C(F)(F)F)cn4)CC3)cc2)CC1 [Example 1.122],5 to 100
13,CS(=O)(=O)NCCC1CCN(c2ccc(S(=O)(=O)N3CCC(Nc4ccc(C(F)(F)F)cn4)CC3)cc2)CC1 [Example 1.127],5 to 100
14,NC(=O)C1CCCN(c2ccc(S(=O)(=O)N3CCC(Nc4ccc(C(F)(F)F)cn4)CC3)cc2)C1 (stereo not shown) [Example 1.230],5 to 100
15,O=S(=O)(c1ccc(N2CCn3ccnc3C2)cc1)N1CCC(Nc2ccc(C(F)(F)F)cn2)CC1 [Example 1.229],100 to 10000
16,CC(=O)N1CCN(c2ccc(S(=O)(=O)N3CCC(Nc4ccc(C(F)(F)F)cn4)CC3)cc2)CC1 [Example 1.226],5 to 100
17,O=C(CC1CCN(c2ccc(S(=O)(=O)N3CCC(Nc4ccc(C(F)(F)F)cn4)CC3)cc2)CC1)NCCO [Example 1.133],100 to 10000
18,N=[S@](=O)(c1ccc(-c2ccc3oc(N)nc3c2)cc1)N1CCC(Nc2ccc(C(F)(F)F)cn2)CC1 [Example 1.116],5 to 100
19,CS(=O)(=O)NC1CCN(c2ccc(S(=O)(=O)N3CCC(Nc4ccc(C(F)(F)F)cn4)CC3)cc2)CC1 [Example 1.206],5 to 100

row,Structure (SMILES),IC50 [nM]
1,NC(=O)N1CCc2nc(-c3ccc(S(=O)(=O)N4CCC(Nc5ccc(C(F)(F)F)cn5)CC4)cc3)sc2C1 [Example 1.102],100 to 10000
2,Cc1nc2c(s1)CN(c1ccc(S(=O)(=O)N3CCC(Nc4ccc(C(F)(F)F)cn4)CC3)cc1)CC2 [Example 1.221],5 to 100
3,O=S(=O)(c1ccc(N2[C@@H]3CC[C@H]2C[C@@H](O)C3)cc1)N1CCC(Nc2ccc(C(F)(F)F)cn2)CC1 [Example 1.180],5 to 100
4,O=S(=O)(c1ccc(-c2cc3cc[nH]c3nc2F)cc1)N1CCC(Nc2ccc(C(F)(F)F)cn2)CC1 [Example 1.042],5 to 100
5,NC(=O)C(=O)N1CCN(c2ccc(S(=O)(=O)N3CCC(Nc4ccc(C(F)(F)F)cn4)CC3)cc2)CC1 [Example 1.173],5 to 100
6,O=C1c2ccc(-c3ccc(S(=O)(=O)N4CCC(Nc5ccc(C(F)(F)F)cn5)CC4)cc3)cc2CN1CCO [Example 1.021],5 to 100
7,NC(=O)C1CCN(c2ccc(S(=O)(=O)N3CCC(Nc4ccc(C(F)(F)F)cn4)CC3)cc2)C1 (stereo not shown) [Example 1.195],100 to 10000
8,O=C1NCc2ncc(-c3ccc(S(=O)(=O)N4CCC(Nc5ccc(C(F)(F)F)cn5)CC4)cc3)cc21 [Example 1.010],5 to 100
9,NC(=O)N1CCC12CN(c1ccc(S(=O)(=O)N3CCC(Nc4ccc(C(F)(F)F)cn4)CC3)cc1)C2 [Example 1.142],5 to 100
10,O=S(=O)(c1ccc(-c2nc3c(s2)CNCC3)cc1)N1CCC(Nc2ccc(C(F)(F)F)cn2)CC1 [Example 1.106],100 to 10000
11,O=C1NCCC12CCN(c1ccc(S(=O)(=O)N3CCC(Nc4ccc(C(F)(F)F)cn4)CC3)cc1)CC2 [Example 1.153],5 to 100
12,NCCN1C(=O)C2(CC2)c2cc(-c3ccc(S(=O)(=O)N4CCC(Nc5ccc(C(F)(F)F)cn5)CC4)cc3)cnc21 [Example 1.002],5 to 100
13,O=S(=O)(c1ccc(C2=CCOCC2)cc1)N1CCC(Nc2ccc(C(F)(F)F)cn2)CC1 [Example 1.236],5 to 100
14,CN1CCC2(CCN(c3ccc(S(=O)(=O)N4CCC(Nc5ccc(C(F)(F)F)cn5)CC4)cc3)CC2)C1=O [Example 1.157],5 to 100
15,O=S(=O)(c1ccc(-c2ccc3c(c2)NCCO3)cc1)N1CCC(Nc2ccc(C(F)(F)F)cn2)CC1 [Example 1.035],5 to 100
16,O=S(=O)(c1ccc(-c2ccc3c(c2)OCCO3)cc1)N1CCC(Nc2ccc(C(F)(F)F)cn2)CC1 [Example 1.032],100 to 10000
17,O=C1CNC(=O)C2(CCN(c3ccc(S(=O)(=O)N4CCC(Nc5ccc(C(F)(F)F)cn5)CC4)cc3)CC2)N1 [Example 1.139],100 to 10000
18,O=S(=O)(c1ccc(N2CCOCC2)cc1)N1CCC(Nc2ccc(C(F)(F)F)cn2)CC1 [Example 1.129],5 to 100

# Continued, values first:
row,IC50 [nM],Structure (SMILES)
1,< 5,O=C1NCCc2ccc(-c3ccc(S(=O)(=O)N4CCC(Nc5ccc(C(F)(F)F)cn5)CC4)cc3)cc21 [Example 1.066]
2,< 5,O=C1Cc2cc(-c3ccc(S(=O)(=O)N4CCC(Nc5ccc(C(F)(F)F)cn5)CC4)cc3)ccc2CN1 [Example 1.012]
3,5 to 100,O=S(=O)(c1ccc(N2CCC[C@@H](O)C2)cc1)N1CCC(Nc2ccc(C(F)(F)F)cn2)CC1 [Example 1.185]
4,5 to 100,CS(=O)(=O)NCC1CCN(c2ccc(S(=O)(=O)N3CCC(Nc4ccc(C(F)(F)F)cn4)CC3)cc2)CC1 [Example 1.141]
5,< 5,Nc1nnc2ccc(-c3ccc(S(=O)(=O)N4CCC(Nc5ccc(C(F)(F)F)cn5)CC4)cc3)cn12 [Example 1.016]
6,5 to 100,O=C1CC2(CCN(c3ccc(S(=O)(=O)N4CCC(Nc5ccc(C(F)(F)F)cn5)CC4)cc3)CC2)C(=O)N1 [Example 1.149]
7,< 5,CC(=O)N1Cc2ccc(-c3ccc(S(=O)(=O)N4CCC(Nc5ccc(C(F)(F)F)cn5)CC4)cc3)cc2C1 [Example 1.053]
8,5 to 100,N=[S@](=O)(c1ccc(-c2ccc3oc(N)nc3c2)cc1)N1CCC(Nc2ccc(C(F)(F)F)cc2)CC1 [Example 1.105]
9,5 to 100,O=S(=O)(c1ccc(N2CCC(O)CC2)cc1)N1CCC(Nc2ccc(C(F)(F)F)cn2)CC1 [Example 1.156]
10,5 to 100,CS(=O)(=O)NC1CC2(C1)CN(c1ccc(S(=O)(=O)N3CCC(Nc4ccc(C(F)(F)F)cn4)CC3)cc1)C2 [Example 1.161]
11,< 5,NC(=O)N1CC2(C1)CN(c1ccc(S(=O)(=O)N3CCC(Nc4ccc(C(F)(F)F)cn4)CC3)cc1)C2 [Example 1.154]
12,5 to 100,O=c1[nH]c2cc(-c3ccc(S(=O)(=O)N4CCC(Nc5ccc(C(F)(F)F)cn5)CC4)cc3)ccc2o1 [Example 1.082]
13,5 to 100,O=C1NS(=O)(=O)c2cc(-c3ccc(S(=O)(=O)N4CCC(Nc5ccc(C(F)(F)F)cn5)CC4)cc3)ccc21 [Example 1.062]
14,< 5,Cn1nc(C(N)=O)c2cc(-c3ccc(S(=O)(=O)N4CCC(Nc5ccc(C(F)(F)F)cn5)CC4)cc3)ccc21 [Example 1.090]
15,< 5,O=S(=O)(c1ccc(-c2ccc3[nH]cnc3c2)cc1)N1CCC(Nc2ccc(C(F)(F)F)cn2)CC1 [Example 1.110]
16,< 5,O=c1[nH]c2cc(-c3ccc(S(=O)(=O)N4CCC(Nc5ccc(C(F)(F)F)cn5)CC4)cc3)cnc2[nH]1 [Example 1.067]
17,< 5,N#Cc1cn(CCNC(N)=O)c2ncc(-c3ccc(S(=O)(=O)N4CCC(Nc5ccc(C(F)(F)F)cn5)CC4)cc3)cc12 [Example 1.003]
18,< 5,N#Cc1c[nH]c2ncc(-c3ccc(S(=O)(=O)N4CCC(Nc5ccc(C(F)(F)F)cc5)CC4)cc3)cc12 [Example 1.056]
19,< 5,Nc1nc(=O)c2cc(-c3ccc(S(=O)(=O)N4CCC(Nc5ccc(C(F)(F)F)cn5)CC4)cc3)ccc2[nH]1 [Example 1.015]
20,< 5,O=C1NCCCC12CCN(c1ccc(S(=O)(=O)N3CCC(Nc4ccc(C(F)(F)F)cn4)CC3)cc1)CC2 [Example 1.165]
21,< 5,O=c1[nH]ncc2cc(-c3ccc(S(=O)(=O)N4CCC(Nc5ccc(C(F)(F)F)cn5)CC4)cc3)ccc12 [Example 1.059]
22,< 5,CNc1n[nH]c2ncc(-c3ccc(S(=O)(=O)N4CCC(Nc5ccc(C(F)(F)F)cn5)CC4)cc3)cc12 [Example 1.049]
23,< 5,O=C1NC2(CCN(c3ccc(S(=O)(=O)N4CCC(Nc5ccc(C(F)(F)F)cn5)CC4)cc3)CC2)CO1 [Example 1.148]
24,< 5,Cc1nc2[nH]ccc2cc1-c1ccc(S(=O)(=O)N2CCC(Nc3ccc(C(F)(F)F)cn3)CC2)cc1 [Example 1.024]
